From patent US20070179113A1, “GM-CSF gene therapy for Crohn's disease using an improved regulated expression system” (Schering Aktiengesellachaft, priority 2005, published 2007)

How the values were obtained:
Mx1 RNA = Mx1 RNA induction in PBMCs after bolus injection of mIFN-β protein; format: in vivo, C57BL/6 mice
Experimental: FIG. 6 illustrates Mx1 RNA induction following i.v. (A) or i.m. injection (B) of mIFN-β protein. C57BL/6 mice were administered 15, 150, or 500 ng of purified recombinant mIFN-β protein (specific activity-2.0×10^8 units/mg) by either i.v. (via tail vein) or i.m. injection (n=3 mice per group). At the specified time points post-injection mice were bled, and RNA was isolated from PBMCs. Mx1 RNA was measured by quantitative RT-PCR. The fold increase in Mx1 RNA is expressed relative to GAPDH values measured in the same samples. The controls include naive mice (N), and mice injected with the vehicle buffer only followed by Mx1 analysis at 2 hours (V2 h) or 4 h (V4 h) post-injection. Each column represents the mean value +/− standard deviation.
A quantitative PCR/RT-PCR assay was developed to quantitate the levels of Mx1 mRNA in murine PBMC's. Specifically, peripheral blood mononuclear cells (PBMCs) were isolated from mice treated with either mIFN-β protein or following gene-based delivery of the mIFN-β gene. Blood samples obtained from treated mice were centrifuged on a ficoll cushion for 25 minutes at 2,000 rpm. Purified PBMCs were pelleted and RNA for the Mx1 assay was purified using the “RNAeasy” mini extraction kit from Qiagen. The RNA was stored in H2O at −80° C. Mx1 RT-PCR was performed using TaqMan® chemistry and analysis was done on the Applied Biosystems (ABI) PRISM® 7700 Sequence Detection instrument. For reverse transcription of the RNA and amplification of cDNA, the “One-step TaqMan® RNA” kit from ABI was used. RNA was reverse transcribed for 30 minutes at 48° C. and the amplification was done in 40 cycles with a denaturation step at 95° C. for 30 seconds, and an annealing/elongation step at 60° C. for 1 minute. The samples were analyzed with an Mx1-specific probe/primer combination. Mx1 expression was normalized to GAPDH expression measured in parallel using a standard assay from ABI.
B. Bolus Injection of mIFN-β Protein Induces Transient Biomarker Response In Vivo: The biomarker response after bolus injection of purified recombinant mIFN-β was measured in these studies. […] The highest Mx1 expression levels were measured 2 hours after injection. […] At the 500 ng dose there was a diminished level of Mx1 RNA induction. This saturating effect has been observed in other studies in which high IFN-β levels lead to an apparent down-regulation of the bioresponse, perhaps due to down regulation of the IFN type I receptor (see e.g., Mager, D E and Jusko, W J (2002) Pharm Res 19:1537-43). Mx1 RNA expression in the i.v. injected mice also peaked at approximately 2 hours post-injection and dropped rapidly thereafter.
This is the first time that the expression of Mx1 RNA has been used as a biomarker to follow the activity of mIFN-β in mice. […] However, the upregulation is short term and rapidly drops from high expression levels to background within 12-24 hours.

EAE in SJL mice = assay: Murine active EAE model, mIFN-β protein and pBRES mIFN-β plasmid with MFP pellet; format: in vivo; settings: 25 days
Experimental: FIG. 39A illustrates the effect of treatment of mice with induced EAE neuroinflammation with mIFN-β protein by SC injection every other day for 25 days. SJL mice were immunized on day 1 with proteolipid peptide (PLP) amino acids 139-151/pertussis according to the protocol described in Material and Methods. Groups of mice (n=10 per group) were injected SC on day 1 with mIFN-β protein, 100,000 units (500 ng) or 300,000 units (1500 ng), or vehicle. Animals were scored for EAE disease progression and the average clinical scores are provided with the standard error of the mean score (SEM).
FIG. 39B illustrates the delay in the onset of disease and decrease in the severity of disease following administration of pBRES mIFN-β as compared to the null vector control group. SJL mice were immunized on day I with PLP 139-151/pertussis according to the protocol described. Groups of mice (n=10 per group) were injected IM on day-7 with 200 ug of either pBRES null plasmid DNA or pBRES mIFN-β plasmid DNA with electroporation. One group of mice were treated daily with Prednisolone by IP injection and served as the positive control for the study. Plasmid treated mice were administered one mifepristone (MFP) containing slow release pellets by SC injection on day-3. Animals were scored for EAE disease progression and the average clinical scores are provided with the standard error of the mean score (SEM). […]

## mIFN-β: purified recombinant murine interferon-beta protein expressed in 293E cells
Mx1 RNA; 15, 150 or 500 ng, i.v. or i.m.
  induction of Mx1 RNA expression relative to vehicle injected mice: 25- to 50 fold
Mx1 RNA; bolus protein
  time within which Mx1 upregulation drops to background: 12 to 24 h
Mx1 RNA; i.m.
  time beyond which no Mx1 RNA levels above background were detected: ≤ 12 h
Mx1 RNA; i.v.
  dose giving the highest Mx1 induction: 150 ng
  time of peak Mx1 RNA expression post-injection: approximately 2 hours
Mx1 RNA; i.v. or i.m.
  time of highest Mx1 expression levels after injection: 2 h
EAE in SJL mice; 100,000 units SC every other day
  severity of disease (clinical scores) compared to vehicle: significantly reduced the severity of the disease
EAE in SJL mice; 300,000 units SC every other day
  severity of disease (clinical scores) compared to vehicle: significantly reduced the severity of the disease
